Among the data in PubChem BioAssay AID2060345 (Molecular Pharmacology Branch, DTP, NCI, 2025) are IC50 and viability, T/C values, retold here.

For the test, the system named is MALME-3M multicell spheroids, viability. As to the kind of experiment: Anticancer human tumor MALME-3M cell line growth inhibition [TAK].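 On all read-outs here: spheroids exposed to drugs for seven days before readout.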 Conditions: for viability, T/C: stronger effect = lower value. An excerpt:
Combinatorial screen of targeted agents with TAK-243 and ipatasertib in multi-cell type tumor spheroids
A high-throughput screen of multi-cell type tumor spheroids was designed to identify active combinations of targeted small molecules and TAK-243 or ipatasertib. Complex spheroids include a stromal component modeled by human endothelial cells (HUVEC) and fibroblasts modeled by human mesenchymal stem cells (MSCs). The concentration ranges selected for each drug and investigational agent were based upon clinically achievable concentrations if the clinical Cmax of the agent was known.
Compounds. The drugs and investigational agents: TAK-243 (785004), ipatasertib (767898), everolimus (733504), selumetinib (741078), bortezomib (756655), trametinib (758246), ixazomib (758254), vemurafenib (761431), dabrafenib (764134), sapanisertib (764658), alpelisib (765974), and copanlisib (816437), were obtained from the National Cancer Institute (NCI) Developmental Therapeutics Program Chemical Repository. The FDA-approved anticancer drug set is available from the NCI Developmental Therapeutics Program. […] The stock solutions were prepared in dimethyl sulfoxide (DMSO, Sigma-Aldrich, St. Louis, MO, cat. D2650) at 800-fold the tested concentration and stored at -70 degrees C prior to their use. All drugs and investigational agents were tested over a range starting from a high concentration at or near the clinical Cmax and decreasing in half-log increments. If the clinical Cmax for an agent had not been determined, the highest concentration tested was 10 microM.
NCI60 Cell Culture. NCI60 cell lines were obtained from the NCI Developmental Therapeutics Program Tumor Repository. For each lot of cells, the Repository performed Applied Biosystems AmpFLSTR Identifiler testing with PCR amplification to confirm consistency with the published Identifier STR profile for each cell line. Cells were kept in continuous culture for no more than 20 passages. The optimal seeding densities for each of the cell lines at each time point assessed were determined prior to performing the concentration response studies. Briefly, the NCI60 human tumor lines were grown as monolayers in RPMI 1640 medium supplemented with 10% FBS and 2 mmol/L L-glutamine.
An additional 2 lines were from the NCI60 cell line panel including melanomas, MALME-3M and SK-MEL-2. Pooled donor human umbilical vein endothelial cells (HUVEC, Lonza, cat. CC-2519) and human mesenchymal stem cells (hMSC, Lonza, cat. PT-2501) were purchased from Lonza (Walkersville, MD).
PDMR cell lines were grown in complete medium (DC medium): Dulbecco's modified Eagle's medium (DMEM)/F12 supplemented with 5% fetal bovine serum (FBS), 2 mM L-glutamine, 100 U/mL penicillin and 100 µg/ml streptomycin, 0.4 µg/ml hydrocortisone, 10 ng/ml epidermal growth factor (EGF) recombinant human protein, 24 µg/mL adenine, and 0.1 mg/mL primocin. During culture from frozen stock vials, PDMR cells were cultured in the same medium containing 10 µM Y-27632 (see Table 3). The PDCs were cultured in complete DMEM/F12 media without 10 microM Y-27632 dihydrochloride for at least two passages prior to the screen. The pooled donor HUVEC and hMSC were cultured in endothelial cell growth medium 2 (PromoCell, Heidelberg, Germany, cat. C-22011) and mesenchymal stem cell growth medium 2 (PromoCell, cat. C-28009), respectively. For all experiments, HUVEC and hMSC were used at passages </=5.
For the pre-screen, cell seeding densities were determined from a titration spanning the range from 5,000 to 313 cells per well. The mct-spheroids including 60% malignant cells, 25% HUVEC and 15% MSC dispensed as a mixture into U-bottom Ultra-Low Attachment 384-well plates (Corning, NY)
High-throughput Drug Combination Screening.
Prior to their inoculation into 384-well plates, malignant cells, HUVEC, and hMSC were removed from T flasks using TrypLE express (Thermo Fisher Scientific, cat. 12605036) and harvested by centrifugation for 5 min at 233 x g. […]

Where [1] appears, read: curve of first compound, second compound 0.3 µM.
Where [2] appears, read: curve of first compound, second compound 0.949 µM.
[3] abbreviates: curve of first compound, second compound 3 µM.
Where [4] appears, read: curve of first compound, second compound 9.49 µM.
The mark [5] stands for this setting: curve of first compound, second compound 30 µM.
The mark [6] stands for this setting: second compound 0.3 µM, first compound 0.0316 µM.
Setting [7] is: second compound 0.3 µM, first compound 0.1 µM.
The mark [8] stands for this setting: second compound 0.3 µM, first compound 0.316 µM.
The mark [9] stands for this setting: second compound 0.3 µM, first compound 1 µM.
[10] abbreviates: second compound 0.3 µM, first compound 3.16 µM.
[11] abbreviates: second compound 0.3 µM, first compound 10 µM.
The mark [12] stands for this setting: second compound 0.949 µM, first compound 0.0316 µM.
[13] abbreviates: second compound 0.949 µM, first compound 0.1 µM.
The mark [14] stands for this setting: second compound 0.949 µM, first compound 0.316 µM.
Where [15] appears, read: second compound 0.949 µM, first compound 1 µM.
The mark [16] stands for this setting: second compound 0.949 µM, first compound 3.16 µM.
Where [17] appears, read: second compound 0.949 µM, first compound 10 µM.
[18] abbreviates: second compound 3 µM, first compound 0.0316 µM.
Setting [19] is: second compound 3 µM, first compound 0.1 µM.
Setting [20] is: second compound 3 µM, first compound 0.316 µM.
Setting [21] is: second compound 3 µM, first compound 1 µM.
[22] abbreviates: second compound 3 µM, first compound 3.16 µM.
The mark [23] stands for this setting: second compound 3 µM, first compound 10 µM.
Setting [24] is: second compound 9.49 µM, first compound 0.0316 µM.
Where [25] appears, read: second compound 9.49 µM, first compound 0.1 µM.
Where [26] appears, read: second compound 9.49 µM, first compound 0.316 µM.
[27] abbreviates: second compound 9.49 µM, first compound 1 µM.
Where [28] appears, read: second compound 9.49 µM, first compound 3.16 µM.
Setting [29] is: second compound 9.49 µM, first compound 10 µM.
Setting [30] is: second compound 30 µM, first compound 0.0316 µM.
The mark [31] stands for this setting: second compound 30 µM, first compound 0.1 µM.
The mark [32] stands for this setting: second compound 30 µM, first compound 0.316 µM.
The mark [33] stands for this setting: second compound 30 µM, first compound 1 µM.
The mark [34] stands for this setting: second compound 30 µM, first compound 3.16 µM.
[35] abbreviates: second compound 30 µM, first compound 10 µM.

Values joined by “and” are separate entries in the source; they are usually repeats but may differ in a detail not shown here. Equal entries are not always repeated.

As a reminder, the IC50 is the point on the concentration scale where inhibition reaches its midpoint. A word on the viability, T/C: it is the ratio of treated to control.

As to `CC(C)(C)c1nc(-c2cccc(NS(=O)(=O)c3c(F)cccc3F)c2F)c(-c2ccnc(N)n2)s1` + CC(C)NCC(C(=O)N1CCN(c2ncnc3c2C(C)CC3O)CC1)c1ccc(Cl)cc1, the IC50 reads like this: under setting [1], under 31.6 nM; under setting [2], under 31.6 nM; under setting [3], under 31.6 nM; under setting [4], under 31.6 nM; under setting [5], under 31.6 nM. Moreover, the viability, T/C by setting is: under setting [6], 26.6%; under setting [7], 23.6%; under setting [8], 25%; under setting [9], 25.8%; under setting [10], 22.2%; under setting [11], 29.6%. Also, the viability, T/C runs as follows: under setting [12], 27.1%; under setting [13], 26.2%; under setting [14], 23.2%; under setting [15], 24.8%; under setting [16], 20.6%; under setting [17], 26.2%. Also, the viability, T/C is 25.4% under setting [18]; 26.8% under setting [19]; 21.3% under setting [20]; 20.1% under setting [21]; 15.4% under setting [22]; 21.5% under setting [23]. For the same molecule, the viability, T/C is 23% under setting [24]; 21% under setting [25]; 19.5% under setting [26]; 15.6% under setting [27]; 14.1% under setting [28]; 17.1% under setting [29]. In addition, the viability, T/C reads like this: under setting [30], 17.1%; under setting [31], 18.4%; under setting [32], 18.5%; under setting [33], 11.4%; under setting [34], 8.12%; under setting [35], 11.6%.
With `CC(C)NCC(C(=O)N1CCN(c2ncnc3c2C(C)CC3O)CC1)c1ccc(Cl)cc1` (centres undefined), the viability, T/C reads like this: (compound 9.49 µM) 76% [middle of 10 runs]; (compound 30 µM) 50.4% [middle of 10 runs]. Besides, the half-inhibitory concentration (IC50) (compound alone, run of 02/20/2020) was > 30000 nM and 23200 nM and 14800 nM.
Turning to `Cc1nc(NC(=O)N2CCCC2C(N)=O)sc1-c1ccnc(C(C)(C)C(F)(F)F)c1` (centres undefined) + CC(C)NCC(C(=O)N1CCN(c2ncnc3c2C(C)CC3O)CC1)c1ccc(Cl)cc1, the IC50 is over 10000 nM under setting [1]; over 10000 nM under setting [2]; over 10000 nM under setting [3]; 4310 nM under setting [4]; 355 nM under setting [5]. Further, the viability, T/C is, setting by setting: under setting [6], 110%; under setting [7], 104%; under setting [8], 97.7%; under setting [9], 88.1%; under setting [10], 72.5%; under setting [11], 59.1%. For the same molecule, the viability, T/C by setting is: under setting [12], 107%; under setting [13], 103%; under setting [14], 86.3%; under setting [15], 90.7%; under setting [16], 75.5%; under setting [17], 55.4%. For the same molecule, the viability, T/C under setting [18] was 94.3%; the viability, T/C under setting [19] was 88.6%; the viability, T/C under setting [20] was 79.3%; the viability, T/C under setting [21] was 75.2%; the viability, T/C under setting [22] is 73.8%; the viability, T/C under setting [23] is 53%. Moreover, the viability, T/C reads like this: under setting [24], 79.4%; under setting [25], 73%; under setting [26], 67.1%; under setting [27], 67.5%; under setting [28], 54.8%; under setting [29], 37.4%. The viability, T/C under setting [30] was 56.3%; the viability, T/C under setting [31] is 59.1%; the viability, T/C under setting [32] is 47.1%; the viability, T/C under setting [33] is 42%; the viability, T/C under setting [34] is 40%; the viability, T/C under setting [35] is 22%.
As to `COc1c(OCCCN2CCOCC2)ccc2c3n(c(=NC(=O)c4cnc(N)nc4)nc12)CCN3`, the viability, T/C reads like this: (compound 0.00316 µM) 92.7% and 95.3%; (compound 0.01 µM) 71.3% and 85.2%; (compound 0.0316 µM) 70.3% and 76.1%; (compound 0.1 µM) 51.1% and 48.3%; (compound 0.316 µM) 19% and 21.5%; (compound 1 µM) 8.97% and 8.52%. Also, the IC50 (curve of compound) was 84 nM and 92.9 nM.
As for `Cc1nc(NC(=O)N2CCCC2C(N)=O)sc1-c1ccnc(C(C)(C)C(F)(F)F)c1` (centres undefined), the viability, T/C by setting is: (compound 0.0316 µM) 100% and 86.7%; (compound 0.1 µM) 98.8% and 96.3%; (compound 0.316 µM) 83.6% and 72.6%; (compound 1 µM) 70.6% and 81.7%; (compound 3.16 µM) 61.6% and 68.2%; (compound 10 µM) 50% and 41.9%. The IC50 (curve of compound) was > 10000 nM and 7080 nM.
Take `CC(C)CC(NC(=O)C(Cc1ccccc1)NC(=O)c1cnccn1)B(O)O` (centres undefined): the viability, T/C (compound 31.6 pM) was 105% and 95.5%; the viability, T/C (compound 0.0001 µM) was 97.5% and 87.7%; the viability, T/C (compound 0.000316 µM) was 98.5% and 86.3%; the viability, T/C (compound 0.001 µM) was 97.5% and 70.5%; the viability, T/C (compound 0.00316 µM) was 25.8% and 18.3%; the viability, T/C (compound 0.01 µM) was 0.68% and 0.19%. Besides, where the note is “curve of compound”, the half-maximal inhibitory concentration (IC50) is 2.14 nM and 1.56 nM.
